Assay results taken from PubChem BioAssay (NCI).
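Interpolation was linear, between the two tested concentrations surrounding the appropriate level; five concentrations were tested over 48 hours in 96-well plates. The concentration for 50% growth inhibition is given as GI50. TGI: concentration producing complete growth inhibition.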

Experiments:
Experiment in all cases: NCI anticancer screen, dose series, 48 h
786-0 renal = test system: 786-0 renal
HOP-62 NSCLC = test system: HOP-62 NSCLC
HL-60(TB) leukemia = test system: HL-60(TB) leukemia
A549 NSCLC = test system: A549 NSCLC
NCI/ADR-RES ovarian = test system: NCI/ADR-RES ovarian
T-47D breast = test system: T-47D breast
CAKI-1 renal = test system: CAKI-1 renal
KM12 colon = test system: KM12 colon
MDA-MB-231 breast = test system: MDA-MB-231 breast
OVCAR-5 ovarian = test system: OVCAR-5 ovarian

Structure (SMILES)	TGI (786-0 renal)	TGI (HOP-62 NSCLC)	TGI (HL-60(TB) leukemia)	TGI (A549 NSCLC)	TGI (NCI/ADR-RES ovarian)	TGI (T-47D breast)	TGI (CAKI-1 renal)	TGI (KM12 colon)	TGI (MDA-MB-231 breast)	TGI (OVCAR-5 ovarian)	GI50 (NCI/ADR-RES ovarian)	GI50 (T-47D breast)	GI50 (CAKI-1 renal)	GI50 (KM12 colon)	GI50 (MDA-MB-231 breast)	GI50 (OVCAR-5 ovarian)	GI50 (HOP-62 NSCLC)	GI50 (HL-60(TB) leukemia)	GI50 (A549 NSCLC)
CCOC(=O)C1=C(C)N(c2ccc(C)cc2)C2=C(C(=O)N(c3ccccc3)C2c2ccccc2)C1c1ccccc1 (stereo not drawn)	> 25 µM	> 25 µM	> 25 µM	> 25 µM															
O=C1CCC(=O)N1n1c(Cc2ccc(Cl)cc2)n[nH]c1=O	> 100 µM		> 100 µM	> 100 µM	> 100 µM	> 100 µM	> 100 µM	> 100 µM	> 100 µM	> 100 µM									
CNC(=O)N(C)COC		> 100 µM	> 100 µM	> 100 µM			> 100 µM	> 100 µM		> 100 µM									
COC(=O)/C=C/c1ccc2c(c1)CC1(C2)Cc2cc3c(cc2C1=O)CCC3 (stereo not drawn)	68.7 µM		> 100 µM	> 100 µM	> 100 µM	81.8 µM	> 100 µM	> 100 µM	> 100 µM										
CSc1ccc(NC(=S)NN(C)C)cc1	> 10 µM	> 10 µM	> 10 µM	> 10 µM	> 10 µM	> 10 µM	> 10 µM	> 10 µM	> 10 µM										
O=C1/C(=C/c2ccc(Cl)cc2)N=C(c2ccccc2)N1CCc1cccs1		> 100 µM	90.2 µM	> 100 µM	> 100 µM	> 100 µM	> 100 µM	> 100 µM	98.7 µM	> 100 µM	23.7 µM	18.2 µM	20.4 µM	22 µM	13.6 µM	61.2 µM	47.3 µM	21.4 µM	31.4 µM
N#Cc1c(N)sc2c1-c1ccccc1OC2		> 100 µM	82.1 µM	> 100 µM	> 100 µM			> 100 µM	> 100 µM	> 100 µM									
CCOc1ccc(/C=N/[N+](C)(C)C)cc1OCC	> 10 µM	> 10 µM		> 10 µM	> 10 µM	> 10 µM	> 10 µM	> 10 µM	> 10 µM	> 10 µM									
NC1CC2NC3CCCCC3NC2CC1N (stereo not drawn)	> 100 µM		94.9 µM	> 100 µM	> 100 µM		> 100 µM	> 100 µM	> 100 µM	> 100 µM									
CCCCN1C(=O)c2c(-c3sccc3N)sc(-c3sccc3N)c2C1=O	21.1 µM	41.5 µM		> 100 µM	> 83.2 µM	> 100 µM	> 100 µM	> 100 µM	97.3 µM	> 78.9 µM									
O=C(/C=C/c1ccc(O)c(O)c1)c1cc(O)cc(O)c1	26.6 µM	36.6 µM		> 100 µM	47.7 µM	29.3 µM	> 100 µM		28.8 µM	28.9 µM									
N#C/C(=C\c1cc(Cl)cc(Cl)c1)c1ccccn1	> 100 µM	> 100 µM	> 100 µM	> 100 µM	> 100 µM		> 100 µM	> 100 µM		> 100 µM									
CC(=O)N(O)[C@@H]1CC[C@H](n2cnc3c(N)ncnc32)C1	> 100 µM	> 100 µM		> 100 µM	> 100 µM	> 100 µM	> 100 µM	> 100 µM	> 100 µM	> 100 µM									
O=C1/C(=C/c2cccc(Br)c2)CSC/C1=C\c1cccc(Br)c1	11.8 µM	6.74 µM		41.5 µM	25.5 µM	21.1 µM	6.06 µM	4.43 µM	48.9 µM	15.5 µM									
COc1cc(COC(=O)N(CC(=O)O)c2ccccc2)c([N+](=O)[O-])cc1OC	> 100 µM	> 100 µM	> 100 µM	> 100 µM	> 100 µM	> 100 µM		> 100 µM		> 100 µM									
CSCCCNC(=O)c1csc(-c2csc(C(CNC(=O)OC(C)(C)C)CNC(=O)OC(C)(C)C)n2)n1	> 100 µM	> 100 µM			> 100 µM	> 100 µM	> 100 µM	> 100 µM	> 100 µM	> 100 µM									
COC(=O)c1ccc(C)cc1/C=C1\Cc2ccc(C)cc2C1=O	50 µM	39.5 µM	18.2 µM	98.4 µM	> 100 µM	69.6 µM	94.3 µM	33.8 µM		42.3 µM									
CN1CCC(CN2c3ccccc3Sc3ccccc32)CC1	27.3 µM	32.2 µM	32.8 µM	28.4 µM			18 µM	29.6 µM		33.5 µM									
CC(=O)OC(CCC1(C)OC1COc1ccc(CCNC(=O)c2ccccc2)cc1)C(C)(C)OC(C)=O (stereo not drawn)	> 100 µM	> 100 µM	> 100 µM	> 100 µM			> 100 µM	33.7 µM		> 100 µM									
O=C(O)c1cnc2[nH]ccn2c1=O	> 100 µM	> 100 µM	> 100 µM	> 100 µM	> 100 µM	> 100 µM			> 100 µM	> 100 µM									
O=c1[nH]c(Nc2cc(Cl)cc(Cl)c2)nc2nc[nH]c12	> 75 µM	> 75 µM		> 75 µM	> 75 µM	> 75 µM	> 75 µM	> 75 µM	> 75 µM	> 75 µM									
CCCCCCOP(=O)(OCCCCCC)C(NC(=O)OCC)(C(F)(F)F)C(F)(F)F		> 100 µM	> 100 µM	> 100 µM	> 100 µM	> 100 µM	> 100 µM	> 100 µM	56.6 µM	> 100 µM									
O=c1[nH]c(=O)n(C2CC(O)C(CO)O2)cc1C1=NC1 (stereo not drawn)	> 100 µM	> 100 µM		> 100 µM	> 100 µM	> 100 µM		> 100 µM	> 100 µM	> 100 µM									
O=C1CCCC/C1=C\c1ccc(Br)cc1	30.9 µM	42.8 µM	7.23 µM	67.7 µM	12.2 µM	51 µM	32.1 µM	5.83 µM	37.7 µM										
